Here are results for 19 compounds from patent US12486268B2 (TRANSNEURAL THERAPEUTICS, INC., priority 2022, dated 2025).

The assay concerns the target T1, human serotonin 2A receptors (5-HT2AR) (Homo sapiens, UniProt P28223).
T1 construct: expressed in transfected cells; host or cells: HEK 293 cells
Kind of assay: IP1 accumulation assay (HTRF). Conditions: HEK 293 cells expressing human 5-HT2AR; for Emax: HEK293, IP1 production, relative to 5-HT, read-out: h5-HT2A Emax; for h5-HT2A EC50 / EC50: IP1 production (proxy for Gq activation); for EC50: read-out: h5-HT2A EC50. In kind it is cell-based. On the set-up: key to h5-HT2A EC50: A=<100; B=100 to 1000; C=>1000 to 10000; D=>10000; E=inactive. As to the method: The functional activity of disclosed compounds is measured using an IP1 (inositol monophosphate) accumulation assay. The effects of disclosed compounds on IP1 production (a proxy for Gq activation) was measured in HEK 293 cells expressing human serotonin 2A receptors (5-HT2AR) using a Homogeneous Time Resolved Fluorescence (HTRF) assay. Standard protocols are followed. Briefly, a cell suspension and test compound/s is incubated in a standard buffer. Following incubation, the cells are lysed, and the fluorescence acceptor and donor are added. After incubation the fluorescence transfer is measured, and data is analyzed using GraphPad Prism to generate concentration response curves.
(In general: In TR-FRET formats the signal depends on donor and acceptor labels being close together.)

Structures are written as SMILES. Counter-ions that a name gives are not always drawn.

T1 sequence (P28223 whole entry): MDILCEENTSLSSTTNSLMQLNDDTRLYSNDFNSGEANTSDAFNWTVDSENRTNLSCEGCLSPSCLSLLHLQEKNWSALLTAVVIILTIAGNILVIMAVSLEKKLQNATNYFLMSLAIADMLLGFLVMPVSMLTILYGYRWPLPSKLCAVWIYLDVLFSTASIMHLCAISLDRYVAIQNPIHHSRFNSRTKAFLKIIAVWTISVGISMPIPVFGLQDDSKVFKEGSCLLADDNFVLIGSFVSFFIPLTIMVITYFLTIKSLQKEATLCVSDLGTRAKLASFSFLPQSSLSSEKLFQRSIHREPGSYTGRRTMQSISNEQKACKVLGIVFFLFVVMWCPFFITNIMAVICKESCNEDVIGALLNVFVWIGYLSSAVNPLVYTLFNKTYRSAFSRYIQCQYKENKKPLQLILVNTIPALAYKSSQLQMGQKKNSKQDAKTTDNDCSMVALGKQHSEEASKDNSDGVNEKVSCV

As a reminder, the Emax is the maximal effect, on the per cent scale that the assay sets. With `CC1C=C(c2c[nH]c3ncccc23)CN(CC(C)(F)F)C1` (single isomer, unassigned) [103 Isomer 1], the Emax is under 50% and the “h5-HT2A EC50” value is on record as “E”. `CC1C=C(c2c[nH]c3ncccc23)CN(CC(C)(F)F)C1` (single isomer, unassigned) [103 Isomer 2]: the “h5-HT2A EC50” value is given as “E”. As for `CC1C=C(c2c[nH]c3ncccc23)CN(CC(F)(F)C(F)(F)F)C1` (single isomer, unassigned) [105 Isomer 1], the “h5-HT2A EC50” value was “E”.

Consider `CC1C=C(c2c[nH]c3ncccc23)CN(CC(F)(F)C(F)(F)F)C1` (single isomer, unassigned) [105 Isomer 2], for which the Emax was under 50% and the “h5-HT2A EC50” value is “E”. Usually EC50 stands for the concentration giving half of the maximal effect. As for `FC(F)(F)C1C=C(c2c[nH]c3ncccc23)CNC1` (stereo not drawn) [Compound 101, 3-(5-(trifluoromethyl)-1,2,5,6-tetrahydropyridin-3-yl)-1H-pyrrolo[2,3-b]pyridine], the Emax fell in the range of 75 to 90% and the EC50 fell in the range of 1 to 10 µM.

With `CN1CC(c2c[nH]c3ncccc23)=CC(C(F)(F)F)C1` (stereo not drawn) [Compound 102, 3-(1-methyl-5-(trifluoromethyl)-1,2,5,6-tetrahydropyridin-3-yl)-1H-pyrrolo[2,3-b]pyridine], the EC50 was over 10 µM. Turning to `CN1CCC2CC2(c2c[nH]c3ncccc23)C1` (stereo not drawn) [Compound 106, 3-(3-methyl-3-azabicyclo[4.1.0]heptan-1-yl)-1H-pyrrolo[2,3-b]pyridine], the EC50 was over 10 µM. Same read-out and setting: in the case of `CC1(C)C=C(c2c[nH]c3ncccc23)CNC1` [Compound 107, 3-(5,5-dimethyl-1,2,5,6-tetrahydropyridin-3-yl)-1H-pyrrolo[2,3-b]pyridine hydrochloride] it was over 10 µM; in that of `CN1CC(c2c[nH]c3ncccc23)=CC(C)(C)C1` [Compound 108, 3-(1,5,5-trimethyl-1,2,5,6-tetrahydropyridin-3-yl)-1H-pyrrolo[2,3-b]pyridine hydrochloride], over 10 µM; in that of `N#CC1C=C(c2c[nH]c3ncccc23)CNC1` (stereo not drawn) [Compound 132, 5-(1H-pyrrolo[2,3-b]pyridin-3-yl)-1,2,3,6-tetrahydropyridine-3-carbonitrile], over 10 µM.

On to `C1=C(c2c[nH]c3ncccc23)C2CC1CN2` (stereo not drawn) [Compound 134], for which the Emax was under 50% and the “h5-HT2A EC50” value is “E”. Regarding `CN1C2CC=C(c3c[nH]c4ncccc34)C1CC2` (stereo not drawn) [Compound 141, 3-(8-methyl-8-azabicyclo[3.2.1]oct-2-en-2-yl)-1H-pyrrolo[2,3-b]pyridine], the EC50 was over 10 µM. On to `CCN1CC(c2c[nH]c3ncccc23)=CC2(CC2)C1` [Compound 144, 3-(5-ethyl-5-azaspiro[2.5]oct-7-en-7-yl)-1H-pyrrolo[2,3-b]pyridine], for which the Emax lay in the range of 75 to 90% and the EC50 lay in the range of 1 to 10 µM. The corresponding values for `C1=C(c2c[nH]c3ncccc23)CNCC12CCC2` [Compound 145, 3-(6-azaspiro[3.5]non-8-en-8-yl)-1H-pyrrolo[2,3-b]pyridine] are under 50% and 1 to 10 µM. Turning to `CN1CC(c2c[nH]c3ncccc23)=CC2(CCC2)C1` [Compound 146, 3-(6-methyl-6-azaspiro[3.5]non-8-en-8-yl)-1H-pyrrolo[2,3-b]pyridine dihydrochloride], the Emax lay in the range of 50 to 75% and the EC50 was in the range of 0.1 to 1 µM. With `C1=C(c2c[nH]c3ncccc23)C2(CC2)NCC1` [Compound 147, 3-(4-azaspiro[2.5]oct-7-en-8-yl)-1H-pyrrolo[2,3-b]pyridine hydrochloride], the Emax is over 90% and the EC50 is 1 to 10 µM. Consider `CC1(C)CC=C(c2c[nH]c3ncccc23)CN1` [Compound 148, 3-(6,6-dimethyl-1,2,5,6-tetrahydropyridin-3-yl)-1H-pyrrolo[2,3-b]pyridine hydrochloride], for which the Emax is under 50% and the “h5-HT2A EC50” value is listed as “E”. The corresponding values for `CC1(C)NCCC=C1c1c[nH]c2ncccc12` [Compound 149, 3-(2,2-dimethyl-1,2,5,6-tetrahydropyridin-3-yl)-1H-pyrrolo[2,3-b]pyridine] are under 50% and “E”. Consider `C1=C(c2nsc3ccccc23)CNCC1` [Compound 160, 3-(1,2,5,6-tetrahydropyridin-3-yl)benzo[d]isothiazole], for which the Emax is over 90% and the 50% effective concentration (EC50) was under 0.1 µM.
